Source: ChEMBL document CHEMBL1201862, “PubChem BioAssay data set” (2004)
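Test compounds were applied to cells in 96-well plates for 48 hours at 5 doses. Abbreviation: GI50, concentration required for 50% inhibition of growth.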 The source made the active and inactive calls. No stated cut-off is given here; in the data, active = GI50 up to about 1.1 µM and inactive = higher. Non-standard residues stand in square brackets, D forms with d. Residues, ends and D or L forms follow the SMILES beside them. β3hI = CC[CH](C)[CH](N)CC(=O)O

Key:
Assay in all cases: inhibition of tumour cell growth, NCI panel, 48 h
786-0 = test system: 786-0
BT-549 = test system: BT-549
DU-145 = test system: DU-145
HL-60 = test system: HL-60
KM12 = test system: KM12
MDA-MB-231 = test system: MDA-MB-231
MDA-MB-435 = test system: MDA-MB-435
MDA-N = test system: MDA-N
NCI-H226 = test system: NCI-H226
OVCAR-3 = test system: OVCAR-3
OVCAR-8 = test system: OVCAR-8
PC-3 = test system: PC-3
SF-539 = test system: SF-539
SNB-75 = test system: SNB-75
SR = test system: SR
T47D = test system: T47D
UACC-257 = test system: UACC-257
MOLT-4 = test system: MOLT-4

Structure (SMILES)	GI50 (786-0)	GI50 (BT-549)	GI50 (DU-145)	GI50 (HL-60)	GI50 (KM12)	GI50 (MDA-MB-231)	GI50 (MDA-MB-435)	GI50 (MDA-N)	GI50 (NCI-H226)	GI50 (OVCAR-3)	GI50 (OVCAR-8)	GI50 (PC-3)	GI50 (SF-539)	GI50 (SNB-75)	GI50 (SR)	GI50 (T47D)	GI50 (UACC-257)	GI50 (MOLT-4)
Cc1c2cccc-2ccc2c1[nH]c1ccc(Br)cc12	14.3 µM (inactive)	7.03 µM (inactive)	10.9 µM (inactive)	4.15 µM (inactive)	2.47 µM (inactive)	4.33 µM (inactive)	4.7 µM (inactive)	6.32 µM (inactive)	2.04 µM (inactive)	3.84 µM (inactive)	7.36 µM (inactive)	4.18 µM (inactive)	4.81 µM (inactive)	2.21 µM (inactive)	3.04 µM (inactive)	1.69 µM (inactive)	24.2 µM (inactive)	–
CCOC(=O)C(NC(=O)Nc1ccccc1)(Nc1cccc(Cl)c1)C(F)(F)F (stereo not given)	> 100 µM (inactive)	> 100 µM (inactive)	> 100 µM (inactive)	42 µM (inactive)	> 100 µM (inactive)	> 100 µM (inactive)	> 100 µM (inactive)	> 100 µM (inactive)	> 100 µM (inactive)	> 100 µM (inactive)	> 100 µM (inactive)	> 100 µM (inactive)	> 100 µM (inactive)	46.7 µM (inactive)	> 100 µM (inactive)	> 100 µM (inactive)	> 100 µM (inactive)	98.9 µM (inactive)
NC(=S)N/N=C1\c2ccccc2CCC1CCC1(O)CCc2ccccc2C1=O (stereo not given)	–	16.4 µM (inactive)	37.8 µM (inactive)	2.74 µM (inactive)	26.9 µM (inactive)	26.8 µM (inactive)	20.9 µM (inactive)	25.2 µM (inactive)	–	18 µM (inactive)	16.6 µM (inactive)	31 µM (inactive)	15.3 µM (inactive)	15.7 µM (inactive)	35.2 µM (inactive)	4.04 µM (inactive)	18 µM (inactive)	24.5 µM (inactive)
CCC(C)C(CC(=O)N1CCCC1C(=O)NC(C(=O)NC(C(=O)NCC(=O)NC(CC(N)=O)C(=O)NC(C(=O)NC(C(=O)NC(CCCCN)C(N)=O)C(C)CC)C(C)CC)C(C)C)C(C)CC)NC(=O)C(N)C(C)CC (stereo not drawn) (H-I[β3hI]PIVGNIIK-NH2; configuration not given here)	> 50 µM (inactive)	> 50 µM (inactive)	> 50 µM (inactive)	> 50 µM (inactive)	> 50 µM (inactive)	> 50 µM (inactive)	> 50 µM (inactive)	> 50 µM (inactive)	> 50 µM (inactive)	> 50 µM (inactive)	> 50 µM (inactive)	> 50 µM (inactive)	> 50 µM (inactive)	–	> 50 µM (inactive)	> 50 µM (inactive)	> 50 µM (inactive)	> 50 µM (inactive)
CC(C)C1CN1CC(O)Cn1ccnc1[N+](=O)[O-] (stereo not given)	> 100 µM (inactive)	> 100 µM (inactive)	> 100 µM (inactive)	> 10 µM (inactive)	> 100 µM (inactive)	> 100 µM (inactive)	–	> 100 µM (inactive)	> 100 µM (inactive)	> 100 µM (inactive)	> 100 µM (inactive)	> 100 µM (inactive)	> 100 µM (inactive)	> 100 µM (inactive)	–	> 100 µM (inactive)	> 100 µM (inactive)	> 100 µM (inactive)
CC(NC(C#N)CC12CC3CC(CC(C3)C1)C2)c1ccccc1 (stereo not given)	–	–	41.8 µM (inactive)	18.5 µM (inactive)	–	81.1 µM (inactive)	> 100 µM (inactive)	> 100 µM (inactive)	–	13.6 µM (inactive)	60.8 µM (inactive)	> 100 µM (inactive)	–	–	28.4 µM (inactive)	52 µM (inactive)	> 100 µM (inactive)	27.9 µM (inactive)
CCOC(=O)Oc1ccc(C(CNC(C)C)OC(=O)OCC)cc1OC(=O)OCC (stereo not given)	> 100 µM (inactive)	> 100 µM (inactive)	> 100 µM (inactive)	25.4 µM (inactive)	> 100 µM (inactive)	26.2 µM (inactive)	> 100 µM (inactive)	> 100 µM (inactive)	> 100 µM (inactive)	> 100 µM (inactive)	> 100 µM (inactive)	> 100 µM (inactive)	> 100 µM (inactive)	> 100 µM (inactive)	> 100 µM (inactive)	> 100 µM (inactive)	> 100 µM (inactive)	96.8 µM (inactive)
COC(=O)C1=C(OC(=O)/C=C/c2ccc(Cl)cc2)C(C(=O)OC)[C@@]2(O)[C@@H](C(=O)OC)[C@H](C)C[C@@H]1[C@@H]2C(=O)OC (stereo not given in full)	–	21.6 µM (inactive)	39.4 µM (inactive)	13.6 µM (inactive)	34.1 µM (inactive)	24.5 µM (inactive)	14.9 µM (inactive)	10.4 µM (inactive)	20.7 µM (inactive)	30.8 µM (inactive)	14.6 µM (inactive)	20.7 µM (inactive)	17.6 µM (inactive)	25.9 µM (inactive)	–	26.1 µM (inactive)	45.1 µM (inactive)	15.8 µM (inactive)
CC(C)c1ccccc1SCc1cc(=O)cc(CSc2ccccc2C(C)C)o1	–	–	23.1 µM (inactive)	22.9 µM (inactive)	15.7 µM (inactive)	17.9 µM (inactive)	15 µM (inactive)	18.8 µM (inactive)	21.2 µM (inactive)	17.9 µM (inactive)	22.7 µM (inactive)	13.7 µM (inactive)	–	19.4 µM (inactive)	31.7 µM (inactive)	24 µM (inactive)	20.5 µM (inactive)	22.6 µM (inactive)
CN(C)c1ccc(N2C(=S)SC(=N\c3ccccc3)/C2=N/c2ccccc2)cc1	–	> 100 µM (inactive)	> 100 µM (inactive)	> 100 µM (inactive)	> 100 µM (inactive)	> 100 µM (inactive)	> 100 µM (inactive)	> 100 µM (inactive)	> 100 µM (inactive)	> 100 µM (inactive)	> 100 µM (inactive)	37.8 µM (inactive)	–	> 100 µM (inactive)	> 100 µM (inactive)	> 100 µM (inactive)	–	> 10 µM (inactive)
CN(C)CCn1c(=O)c2ccc3c4c(nn3CCN(C)C)c3cc([N+](=O)[O-])ccc3n(c1=O)c24	< 0.0124 µM (active)	0.906 µM (active)	0.0508 µM (active)	0.09 µM (active)	0.0263 µM (active)	0.0929 µM (active)	0.0675 µM (active)	0.0724 µM (active)	0.518 µM (active)	0.0883 µM (active)	0.049 µM (active)	0.0641 µM (active)	0.394 µM (active)	–	< 0.01 µM (active)	0.249 µM (active)	0.617 µM (active)	< 0.01 µM (active)
C[S+](C)([O-])=Nn1c(=O)n2n(c1=O)[C@H]1CC[C@@H]2C1	–	–	> 100 µM (inactive)	46.3 µM (inactive)	> 100 µM (inactive)	> 100 µM (inactive)	> 100 µM (inactive)	> 100 µM (inactive)	> 100 µM (inactive)	> 100 µM (inactive)	> 100 µM (inactive)	> 100 µM (inactive)	> 100 µM (inactive)	> 100 µM (inactive)	> 100 µM (inactive)	> 100 µM (inactive)	> 100 µM (inactive)	> 100 µM (inactive)
C=CCn1c(=O)c(C)cn(COCCO)c1=O	–	> 100 µM (inactive)	> 100 µM (inactive)	–	> 100 µM (inactive)	> 100 µM (inactive)	> 100 µM (inactive)	> 100 µM (inactive)	> 100 µM (inactive)	> 100 µM (inactive)	> 100 µM (inactive)	> 100 µM (inactive)	> 100 µM (inactive)	> 100 µM (inactive)	–	> 100 µM (inactive)	> 100 µM (inactive)	> 100 µM (inactive)
COc1ccc2nc3ccc(OC)cc3c([S+]([O-])CCCl)c2c1 (stereo not given)	1.76 µM (inactive)	15.1 µM (inactive)	1.99 µM (inactive)	2.31 µM (inactive)	16.6 µM (inactive)	5.87 µM (inactive)	3.73 µM (inactive)	2.44 µM (inactive)	16.8 µM (inactive)	2.2 µM (inactive)	2.67 µM (inactive)	11.2 µM (inactive)	1.72 µM (inactive)	17.8 µM (inactive)	2.67 µM (inactive)	2.04 µM (inactive)	2.21 µM (inactive)	2.82 µM (inactive)
Clc1ccc(Cl)c(Nc2ccnc(SCc3ccccc3)n2)c1	> 100 µM (inactive)	> 100 µM (inactive)	> 100 µM (inactive)	–	> 100 µM (inactive)	> 100 µM (inactive)	> 100 µM (inactive)	> 100 µM (inactive)	–	> 100 µM (inactive)	> 100 µM (inactive)	> 100 µM (inactive)	> 100 µM (inactive)	> 100 µM (inactive)	> 100 µM (inactive)	32.4 µM (inactive)	> 100 µM (inactive)	> 100 µM (inactive)
CCC1(c2ccccc2)C(=O)N=C(c2ccccc2)N1CCc1ccccc1 (stereo not given)	> 100 µM (inactive)	> 100 µM (inactive)	> 100 µM (inactive)	> 100 µM (inactive)	> 100 µM (inactive)	> 100 µM (inactive)	> 100 µM (inactive)	> 100 µM (inactive)	> 100 µM (inactive)	> 100 µM (inactive)	> 100 µM (inactive)	> 100 µM (inactive)	> 100 µM (inactive)	> 100 µM (inactive)	> 100 µM (inactive)	> 100 µM (inactive)	> 100 µM (inactive)	> 100 µM (inactive)
